Holding throughout (assay type): in vivo
The subject of one experiment is Leptosphaeria nodorum. Put plainly: Glume Blotch of Wheat (LEPTNO), whole-plant fungicide test. The note with it: one-day protectant test; for pest or weed control at 100 ppm / pest or weed control at 200 ppm: Parastagonospora nodorum, 24 h, read-out: LEPTNO percent control of disease; for pest or weed control at 100 ppm: 100 ppm (footnote a); for pest or weed control at 200 ppm: foliar; for pest or weed control at 200 ppm / LEPTNO percent control of disease: 200 ppm on foliage.

Experiment [1] concerns Puccinia recondita tritici. Put plainly: Leaf Rust of Wheat (PUCCRT), whole-plant fungicide test. The following applies: one-day protectant test; for pest or weed control at 100 ppm / pest or weed control at 200 ppm: Puccinia recondita, 24 h, read-out: PUCCRT percent control of disease; for pest or weed control at 100 ppm: 100 ppm (footnote a); for pest or weed control at 200 ppm: foliar; for pest or weed control at 200 ppm / PUCCRT percent control of disease: 200 ppm on foliage.

Another experiment has as its system Colletotricum lagenarium. In words: Cucumber Anthracnose (COLLLA), whole-plant fungicide test. The note with it: 200 ppm on foliage, one-day protectant test; for pest or weed control at 200 ppm: Cucumis sativus, foliar, 24 h, read-out: COLLLA percent control of disease.
The next experiment concerns Erysiphe cichoracaerum. In words: Cucumber Powdery Mildew (ERYSCI), whole-plant fungicide test. The note with it: 200 ppm on foliage, one-day protectant test; for pest or weed control at 200 ppm: Erysiphe, foliar, 24 h, read-out: ERYSCI percent control of disease.
The next experiment deals with Phytophthora infestans. Put plainly: whole plant or invertebrate. The note with it: for pest or weed control at 200 ppm: Phytophthora infestans, in Solanum lycopersicum, foliar, 24 h, read-out: PHYTIN percent control of disease, 200 ppm on foliage, tomato, one-day protectant test; for PHYTIN percent control of disease: 200 ppm on foliage, tomato, one-day protectant test.

Another experiment concerns Magnaporthe grisea. In words: whole plant or invertebrate. The following applies: for pest or weed control at 200 ppm: Pyricularia oryzae, in Oryza sativa, foliar, 24 h, read-out: PYRIOR percent control of disease, 200 ppm on foliage, rice, one-day protectant test; for PYRIOR percent control of disease: 200 ppm on foliage, rice, one-day protectant test.

For the molecule `CC(Nc1ncnc2scc(Cl)c12)c1ccc2oc(CC(C)(C)C)nc2c1` (stereo not drawn) [Compound 1a], the results for the pest or weed control at 100 ppm (in the experiment on Leptosphaeria nodorum; in experiment [1]) were 50 to 79% and 80 to 100%, respectively.
With `Clc1csc2ncnc(NCCc3ccc4ccccc4c3)c12` [Compound 2a], the pest or weed control at 200 ppm with Colletotricum lagenarium is 0 to 49%; with Erysiphe cichoracaerum, 80 to 100%; with Leptosphaeria nodorum, 0 to 49%; with Phytophthora infestans it was 80 to 100%; in experiment [1], 80 to 100%; in the experiment with Magnaporthe grisea, 80 to 100%.
Turning to `CC(Nc1ncnc2scc(Cl)c12)c1cccc2ccccc12` (stereo not drawn) [Compound 3a], the pest or weed control at 200 ppm is 0 to 49% in the experiment on Colletotricum lagenarium; 80 to 100% in the experiment with Erysiphe cichoracaerum; 0 to 49% in the experiment on Leptosphaeria nodorum; 0 to 49% with Phytophthora infestans; 80 to 100% in experiment [1]; 80 to 100% in the experiment on Magnaporthe grisea.
Regarding `CC(C)(C)OC(=O)c1ccc(CNc2ncnc3scc(Cl)c23)cc1` [Compound 4a], the pest or weed control at 200 ppm in the experiment on Colletotricum lagenarium lay within 0 to 49%; in the experiment with Erysiphe cichoracaerum, 0 to 49%; with Leptosphaeria nodorum, 0 to 49%; in the experiment with Phytophthora infestans, 0 to 49%; in experiment [1], 0 to 49%; with Magnaporthe grisea, 50 to 79%.
As to `CC(Nc1ncnc2scc(Cl)c12)c1ccc(N2CCOCC2)cc1` (stereo not drawn) [Compound 7a], the pest or weed control at 200 ppm with Colletotricum lagenarium lay in the range of 50 to 79%; with Erysiphe cichoracaerum it was 80 to 100%; in the experiment with Leptosphaeria nodorum, 0 to 49%; with Phytophthora infestans, 80 to 100%; in experiment [1] it was 80 to 100%; with Magnaporthe grisea, 80 to 100%.
`Clc1csc2ncnc(NCCc3ccc(N4CCOCC4)cc3)c12` [Compound 8a]: the pest or weed control at 100 ppm is 50 to 79% in the experiment on Leptosphaeria nodorum and 80 to 100% in experiment [1].
For `CC(Nc1ncnc2scc(Cl)c12)c1cnccn1` (stereo not drawn) [Compound 23], the pest or weed control at 200 ppm with Colletotricum lagenarium lay in the range of 0 to 49%; in the experiment with Erysiphe cichoracaerum, 80 to 100%; in the experiment on Leptosphaeria nodorum it was 0 to 49%; in the experiment with Phytophthora infestans it was 0 to 49%; in experiment [1], 80 to 100%; in the experiment with Magnaporthe grisea it was 50 to 79%.
Turning to `CC(C)c1ccc(C(C)Nc2ncnc3scc(Cl)c23)cc1` (stereo not drawn) [Compound 24], in the experiment on Colletotricum lagenarium, the pest or weed control at 200 ppm fell in the range of 0 to 49%. The “ERYSCI percent control of disease” value with Erysiphe cichoracaerum is recorded as “* (* is 0-49 percent control of disease)”. In the experiment with Leptosphaeria nodorum, the “LEPTNO percent control of disease” value is on record as “* (* is 0-49 percent control of disease)”. Moreover, the “PHYTIN percent control of disease” value with Phytophthora infestans is “* (* is 0-49 percent control of disease)”. In addition, the “PUCCRT percent control of disease” value in experiment [1] was “* (* is 0-49 percent control of disease)”. In addition, the “PYRIOR percent control of disease” value with Magnaporthe grisea is “** (** is 50-79 percent control of disease)”.
As to `CC(C)c1ccc(C(C)Nc2ncnc3scc(Cl)c23)cc1` (stereo not drawn) [Compound 25], the “COLLLA percent control of disease” value in the experiment with Colletotricum lagenarium was “* (* is 0-49 percent control of disease)”. For the same molecule, the “ERYSCI percent control of disease” value with Erysiphe cichoracaerum is given as “*** (*** is 80-100 percent control of disease)”. The “LEPTNO percent control of disease” value in the experiment with Leptosphaeria nodorum is “*** (*** is 80-100 percent control of disease)”. Also, the “PHYTIN percent control of disease” value in the experiment with Phytophthora infestans is “*** (*** is 80-100 percent control of disease)”. Besides, the “PUCCRT percent control of disease” value in experiment [1] is listed as “*** (*** is 80-100 percent control of disease)”. The “PYRIOR percent control of disease” value with Magnaporthe grisea is reported as “*** (*** is 80-100 percent control of disease)”.
With `CC(Nc1ncnc2scc(Cl)c12)c1ccc(C(F)(F)F)cc1` (stereo not drawn) [Compound 26], the pest or weed control at 200 ppm fell in the range of 0 to 49% in the experiment with Colletotricum lagenarium; 80 to 100% in the experiment on Erysiphe cichoracaerum; 80 to 100% with Leptosphaeria nodorum; 0 to 49% in the experiment on Phytophthora infestans; 80 to 100% in experiment [1]; 80 to 100% with Magnaporthe grisea.
As for `COc1ccc(C(C)Nc2ncnc3scc(Cl)c23)cc1` (stereo not drawn) [Compound 27], the pest or weed control at 200 ppm was in the range of 0 to 49% with Colletotricum lagenarium; 80 to 100% in the experiment on Erysiphe cichoracaerum; 50 to 79% in the experiment on Leptosphaeria nodorum; 0 to 49% in the experiment with Phytophthora infestans; 80 to 100% in experiment [1]; 80 to 100% in the experiment with Magnaporthe grisea.
In the case of `COc1ccc(OCCNc2ncnc3scc(Cl)c23)cc1` [Compound 64], the pest or weed control at 200 ppm in the experiment on Colletotricum lagenarium was in the range of 0 to 49%; in the experiment on Erysiphe cichoracaerum, 0 to 49%; in the experiment on Leptosphaeria nodorum, 0 to 49%; in the experiment on Phytophthora infestans, 0 to 49%; in experiment [1], 80 to 100%; in the experiment with Magnaporthe grisea, 80 to 100%.
On to `CC(Nc1ncnc2scc(Br)c12)c1cnc(OCC(F)(F)F)nc1` (stereo not drawn) [Compound 67], for which the pest or weed control at 200 ppm in the experiment on Colletotricum lagenarium lay in the range of 0 to 49%; in the experiment with Erysiphe cichoracaerum, 0 to 49%; with Leptosphaeria nodorum it was 0 to 49%; in the experiment on Phytophthora infestans it was 0 to 49%; in experiment [1] it was 80 to 100%; in the experiment with Magnaporthe grisea it was 0 to 49%.
Take `COc1ccc(C(C)Nc2ncnc3scc(I)c23)cc1` (stereo not drawn) [Compound 70, (5-Iodothieno[2,3-d]pyrimidin-4-yl)-[1-(4-methoxyphenyl)ethyl]amine]: the pest or weed control at 200 ppm with Colletotricum lagenarium fell in the range of 0 to 49%; with Erysiphe cichoracaerum, 0 to 49%; with Leptosphaeria nodorum, 0 to 49%; in the experiment with Phytophthora infestans it was 0 to 49%; in experiment [1] it was 0 to 49%; with Magnaporthe grisea, 50 to 79%.
On to `COc1ncc(C(C)Nc2ncnc3scc(Cl)c23)s1` (stereo not drawn) [Compound 72], for which the pest or weed control at 200 ppm was in the range of 0 to 49% in the experiment with Colletotricum lagenarium; 80 to 100% with Erysiphe cichoracaerum; 0 to 49% in the experiment on Leptosphaeria nodorum; 0 to 49% in the experiment with Phytophthora infestans; 80 to 100% in experiment [1]; 80 to 100% in the experiment on Magnaporthe grisea.
On to `CC(Nc1ncnc2scc(Cl)c12)c1ccc(OCC(F)(F)F)cc1` (stereo not drawn) [Compound 73], for which the pest or weed control at 200 ppm with Colletotricum lagenarium was in the range of 80 to 100%; in the experiment on Erysiphe cichoracaerum, 80 to 100%; in the experiment on Leptosphaeria nodorum, 50 to 79%; in the experiment with Phytophthora infestans, 0 to 49%; in experiment [1], 80 to 100%; with Magnaporthe grisea, 80 to 100%.
In the case of `COCC1CC1C(C)Nc1ncnc2scc(Cl)c12` (stereo not drawn) [Compound 81], in experiment [1], the pest or weed control at 100 ppm was 80 to 100%.
Take `CC(Nc1ncnc2scc(Cl)c12)c1ccc(OC(F)(F)F)cc1` (stereo not drawn) [Compound 82]: the pest or weed control at 200 ppm lay in the range of 0 to 49% with Colletotricum lagenarium; 80 to 100% in the experiment with Erysiphe cichoracaerum; 0 to 49% in the experiment on Leptosphaeria nodorum; 0 to 49% in the experiment on Phytophthora infestans; 80 to 100% in experiment [1].
For `COc1cc(F)ccc1C(C)Nc1ncnc2scc(Cl)c12` (stereo not drawn) [Compound 83], the pest or weed control at 200 ppm was in the range of 0 to 49% with Colletotricum lagenarium; 80 to 100% in the experiment on Erysiphe cichoracaerum; 0 to 49% with Leptosphaeria nodorum; 0 to 49% in the experiment with Phytophthora infestans; 80 to 100% in experiment [1].
On to `CC(Nc1ncnc2scc(Cl)c12)c1ccc(OCC(F)(F)F)nc1` (stereo not drawn) [Compound 84], for which the pest or weed control at 100 ppm in experiment [1] lay within 80 to 100%.
Regarding `COc1ccc(COCC2CC2C(C)Nc2ncnc3scc(Cl)c23)cc1` (stereo not drawn) [Compound 85], the pest or weed control at 200 ppm in the experiment with Colletotricum lagenarium was 0 to 49%; in the experiment on Erysiphe cichoracaerum, 80 to 100%; in the experiment on Leptosphaeria nodorum, 0 to 49%; in the experiment on Phytophthora infestans it was 80 to 100%; in experiment [1], 80 to 100%.

These data come from patent US8008487B2, “Substituted thieno[2,3-D]pyrimidines as fungicides” (priority 2004, dated 2011).
